Among the data in patent publication US20250313548A1 (Actio Biosciences, Inc., priority 2023, published 2025) are IC50 values, retold here.

human, KCNT1, sequence (Q5JUK3 whole entry): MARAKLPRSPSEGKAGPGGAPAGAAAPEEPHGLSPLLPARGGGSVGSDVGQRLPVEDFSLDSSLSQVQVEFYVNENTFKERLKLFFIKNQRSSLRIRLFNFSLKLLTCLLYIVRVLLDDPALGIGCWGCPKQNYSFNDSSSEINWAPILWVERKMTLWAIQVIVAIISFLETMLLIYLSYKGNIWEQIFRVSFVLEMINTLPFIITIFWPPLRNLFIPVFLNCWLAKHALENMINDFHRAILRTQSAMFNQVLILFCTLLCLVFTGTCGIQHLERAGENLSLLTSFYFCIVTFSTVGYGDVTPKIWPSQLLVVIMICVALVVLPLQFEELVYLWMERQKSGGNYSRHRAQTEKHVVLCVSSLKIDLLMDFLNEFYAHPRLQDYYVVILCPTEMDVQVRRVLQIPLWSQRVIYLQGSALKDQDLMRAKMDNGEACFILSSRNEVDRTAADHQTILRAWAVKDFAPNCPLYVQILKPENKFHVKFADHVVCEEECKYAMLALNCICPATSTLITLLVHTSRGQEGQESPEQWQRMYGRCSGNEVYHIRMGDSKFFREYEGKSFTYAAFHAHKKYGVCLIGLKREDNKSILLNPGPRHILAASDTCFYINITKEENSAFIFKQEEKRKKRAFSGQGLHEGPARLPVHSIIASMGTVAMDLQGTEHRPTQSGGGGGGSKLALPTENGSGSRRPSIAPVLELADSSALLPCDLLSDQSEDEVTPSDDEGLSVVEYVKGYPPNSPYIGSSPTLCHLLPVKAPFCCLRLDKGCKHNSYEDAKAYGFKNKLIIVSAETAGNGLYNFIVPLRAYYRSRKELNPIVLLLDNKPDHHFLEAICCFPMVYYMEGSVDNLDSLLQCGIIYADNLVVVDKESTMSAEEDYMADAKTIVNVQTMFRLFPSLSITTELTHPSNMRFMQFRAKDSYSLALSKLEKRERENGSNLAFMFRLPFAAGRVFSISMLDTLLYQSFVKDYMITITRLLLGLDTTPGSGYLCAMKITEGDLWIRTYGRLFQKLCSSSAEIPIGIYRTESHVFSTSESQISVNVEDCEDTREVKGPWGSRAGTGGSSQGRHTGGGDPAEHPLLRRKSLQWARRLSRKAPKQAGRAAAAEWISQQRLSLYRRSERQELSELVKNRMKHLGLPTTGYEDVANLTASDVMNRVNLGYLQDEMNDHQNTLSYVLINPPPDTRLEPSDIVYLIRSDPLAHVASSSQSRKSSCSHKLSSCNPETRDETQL

For the test, the target named is human, KCNT1 (Homo sapiens (Human), UniProt Q5JUK3). Nature of the test: FLIPR Tl/K Flux Assay. It counts as cell-based. The note with it: HEK293 cells stably expressing human KCNT1; Tl+ flux stimulated with EC80 of agonist Loxapine. The essentials:
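Inhibition values come from a Hill-equation fit of % inhibition versus log concentration, using normalized fluorescence (Fmax/Fmin) over a 160 s read. The read followed stimulation with Tl+ plus EC80 agonist loxapine after 30 min compound pre-incubation at 25 °C. Cells were KCNT1-expressing HEK293, dye-loaded 1 h in pH 7.4 HEPES/HBSS with 5 mM probenecid.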
On to `Cc1cnc(C(F)(F)F)cc1-c1cc2n(n1)CCC[C@@H]2NC(=O)c1ccnc(OC(F)(F)F)c1` [Compound I-181a, (S)-N-(2-(5-Methyl-2-(trifluoromethyl)pyridin-4-yl)-4,5,6,7-tetrahydropyrazolo[1,5-a]pyridin-4-yl)-2-(trifluoromethoxy)isonicotinamide], for which the IC50 (as a rule, the concentration at which inhibition is half-maximal) is below 250 nM.

`COc1cc(C(=O)N[C@H]2CCCc3cnc(-c4ccnc(C(F)(F)F)c4)cc32)ccn1` (single isomer, unassigned) [I-269*] gave a half-maximal inhibitory concentration (IC50) above 1000 nM.

Regarding `O=C(N[C@H]1CCCn2nc(-c3ccnc(C(F)(F)F)c3)cc21)c1cn(C2CC2)nn1` [Compound I-401a], the IC50 is above 1000 nM.

Compound `Cn1nc(C(F)(F)F)nc1C(=O)N[C@H]1CCc2nn(-c3ccnc(C(F)(F)F)c3)cc21` [Compound I-308a, (S)-1-Methyl-3-(trifluoromethyl)-N-(2-(2-(trifluoromethyl)pyridin-4-yl)-2,4,5,6-tetrahydrocyclopenta[c]pyrazol-4-yl)-1H-1,2,4-triazole-5-carboxamide] had an IC50 below 250 nM.

In turn, `N#Cc1ccc(F)c(C(=O)N[C@H]2CCCn3nc(-c4ccnc(C(F)(F)F)c4)cc32)c1` [Compound I-278a, (S)-5-Cyano-2-fluoro-N-(2-(2-(trifluoromethyl)pyridin-4-yl)-4,5,6,7-tetrahydropyrazolo[1,5-a]pyridin-4-yl)benzamide] returned an IC50 below 250 nM.

`Cn1nc(C2CC2)cc1C(=O)NC1CCCc2nn(-c3ccnc(C(F)(F)F)c3)cc21` (racemic) [Compound I-11, (rac)-3-Cyclopropyl-1-methyl-N-(2-(2-(trifluoromethyl)pyridin-4-yl)-4,5,6,7-tetrahydro-2H-indazol-4-yl)-1H-pyrazole-5-carboxamide] had an IC50 of 250 to 500 nM.

With `Cn1cc(C(=O)N[C@H]2CCCn3nc(-c4ccnc(C(F)(F)F)c4)cc32)c(C(F)(F)F)c1` (single isomer, unassigned) [Compound I-409a], the IC50 was below 250 nM.

For the compound `COc1cc(-c2cc3n(n2)CCCC[C@@H]3NC(=O)c2cc(F)cc(C#N)c2)ccn1` [Compound I-312a, (S)-3-Cyano-5-fluoro-N-(2-(2-methoxypyridin-4-yl)-5,6,7,8-tetrahydro-4H-pyrazolo[1,5-a]azepin-4-yl)benzamide], the IC50 is below 250 nM.

Turning to `Cn1nc(C(F)(F)F)nc1C(=O)N[C@H]1CCCn2nc(-c3ccnc(C(C)(F)F)c3)cc21` [Compound I-551a, (S)-N-(2-(2-(1,1-Difluoroethyl)pyridin-4-yl)-4,5,6,7-tetrahydropyrazolo[1,5-a]pyridin-4-yl)-1-methyl-3-(trifluoromethyl)-1H-1,2,4-triazole-5-carboxamide], the IC50 was below 250 nM.

`O=C(N[C@H]1CCCn2nc(-c3ccnc(C(F)(F)F)c3)cc21)c1cccc(C(F)(F)F)c1F` [Compound I-419a] gave an IC50 below 250 nM.

In turn, `Cn1nc(C(F)(F)F)cc1C(=O)N[C@H]1CCc2nn(-c3ccnc(C4CCC4)c3)cc21` [Compound I-72a] registered an IC50 below 250 nM.

In turn, `COc1cc(-c2cc3n(n2)CCCC[C@H]3NC(=O)c2cc(F)cc(C#N)c2)c(F)cn1` [Compound I-516b] yielded an IC50 of 500 to 1000 nM.

As to `O=C(N[C@H]1CCn2nc(-c3ccnc(C(F)(F)F)c3)cc21)c1cnn(C(F)(F)F)c1C(F)(F)F` [Compound I-532a, (S)-1,5-bis(trifluoromethyl)-N-(2-(2-(trifluoromethyl)pyridin-4-yl)-5,6-dihydro-4H-pyrrolo[1,2-b]pyrazol-4-yl)-1H-pyrazole-4-carboxamide], the IC50 is below 250 nM.

Compound `CC(F)(F)c1cc(-c2nc3c(o2)CCCC3NC(=O)c2cc(C(F)(F)F)n(C(F)F)n2)ccn1` (single isomer, unassigned) [Compound I-534] had an IC50 below 250 nM.

In the case of `COc1cc(-c2nc3c(o2)[C@H](NC(=O)c2cncc(C(F)(F)F)n2)CCC3)ccn1` [Compound I-512b], the IC50 is above 1000 nM.

`O=C(N[C@H]1CCn2nc(-c3ccnc(C(F)(F)F)c3)cc21)C12CC(F)(C1)C2` [Compound I-489a, (S)-3-Fluoro-N-(2-(2-(trifluoromethyl)pyridin-4-yl)-5,6-dihydro-4H-pyrrolo[1,2-b]pyrazol-4-yl)bicyclo[1.1.1]pentane-1-carboxamide] displayed an IC50 below 250 nM.

Regarding `O=C(N[C@H]1CCCc2nc(-c3ccnc(C(F)(F)F)c3)oc21)c1cccc(OC(F)(F)F)c1` [Compound I-187a, (S)-3-(Trifluoromethoxy)-N-(2-(2-(trifluoromethyl)pyridin-4-yl)-4,5,6,7-tetrahydrobenzo[d]oxazol-7-yl)benzamide], the IC50 is below 250 nM.

Regarding `Cn1nc(C(F)(F)F)cc1C(=O)NC1CCCc2nc(-c3ccnc(C(F)(F)F)c3)oc21` (stereo not drawn) [Compound I-83], the IC50 was below 250 nM.

As to `Cn1nc(C(F)(F)F)cc1C(=O)NC1CCCCn2nc(-c3ccnc(C4CC4)c3)cc21` (single isomer, unassigned) [Compound I-67], the IC50 is below 250 nM.

Take `Cc1cn(C)nc1C(=O)N[C@H]1CCCn2nc(-c3ccnc(C(F)(F)F)c3)cc21` [Compound I-416a]: the IC50 lay in the range of 250 to 500 nM.

In turn, `O=C(N[C@H]1CCCc2oc(-c3ccnc(C(F)(F)F)c3)nc21)c1cn(C(F)(F)F)nc1C(F)F` [Compound I-506a, (S)-3-(Difluoromethyl)-1-(trifluoromethyl)-N-(2-(2-(trifluoromethyl)pyridin-4-yl)-4,5,6,7-tetrahydrobenzo[d]oxazol-4-yl)-1H-pyrazole-4-carboxamide] showed an IC50 below 250 nM.

As to `Cc1ccccc1C(=O)NC1CCCc2nn(-c3ccnc(C(F)(F)F)c3)cc21` (racemic) [Compound I-29, (rac)-2-Methyl-N-(2-(2-(trifluoromethyl)pyridin-4-yl)-4,5,6,7-tetrahydro-2H-indazol-4-yl)benzamide], the IC50 is above 1000 nM.

Turning to `Cc1nc(C(F)(F)F)c(C(=O)N[C@H]2CCCn3nc(-c4ccnc(C(F)(F)F)c4)cc32)s1` [Compound I-406a], the IC50 lay within 250 to 500 nM.

`COc1cc(-c2nc3c(o2)[C@@H](NC(=O)c2cncc(C(F)(F)F)n2)CCC3)c(Cl)cn1` [Compound I-161a, (S)-N-(2-(5-Chloro-2-methoxypyridin-4-yl)-4,5,6,7-tetrahydrobenzo[d]oxazol-7-yl)-6-(trifluoromethyl)pyrazine-2-carboxamide] registered an IC50 of 250 to 500 nM.

The compound `Cn1ncc(C(=O)N[C@H]2CCCn3nc(-c4ccnc(C(F)(F)F)c4)cc32)c1C(F)F` [Compound I-421a] yielded an IC50 below 250 nM.

As for `Cc1nc(C(F)(F)F)oc1C(=O)N[C@H]1CCCn2nc(-c3ccnc(C(F)(F)F)c3)cc21` [Compound I-125a, (S)-4-Methyl-2-(trifluoromethyl)-N-(2-(2-(trifluoromethyl)pyridin-4-yl)-4,5,6,7-tetrahydropyrazolo[1,5-a]pyridin-4-yl)oxazole-5-carboxamide], the IC50 is below 250 nM.

`Cc1cnc(C(F)(F)F)cc1-c1cc2n(n1)CCCC[C@H]2NC(=O)c1cc(C(F)(F)F)nn1C` [Compound I-311b]: the IC50 was above 1000 nM.
